Experimental data reported in US20100204203A1, “Chemical Compounds 637: Pyridopyrimidinediones as PDE4 Inhibitors” (priority 2007, published 2010).
Counter-ions that a name gives are not always drawn.

target: recombinant Human Phosphodiesterase B2 (PDE4B2) (Homo sapiens, UniProt Q07343); assay: Human Phosphodiesterase B2 Radiometric Assay (yttrium silicate SPA beads, [3H]cyclic AMP); format: biochemical; conditions: at 0.32 uM
Description: Human Phosphodiesterase B2 Radiometric Assay
The assay uses recombinant Human Phosphodiesterase B2 (PDE4B2) produced in house (PrAZL0163), stored at −20° C. This assay is based on the observation that 5′AMP, the product of the reaction catalysed by PDE4, binds preferentially to yttrium silicate SPA beads (Amersham Biosciences, UK) compared to the substrate, cAMP. Compounds at the appropriate concentration were preincubated at 30 C for 30 min with an assay buffer containing 50 mM HEPES (pH 7.5), 8.3 mM MgCl2, 1.7 mM EGTA, 0.01% (w/v) Brij° 35 and 0.1 mg/mL recombinant PDE4B2. The reaction was started by the addition of [3H]cyclic AMP to give a final concentration of 8 nM, and was stopped 20 minutes after the addition of the substrate by the addition of yttrium silicate SPA beads containing 18 mM Zn SO4. Bound [3H]cyclic AMP was measured using a Topcount NXT (Packard Bioscience, UK). pIC50 values (presented in Table 15) were determined using Xlfit3 curve fitting, using model 205.

Chain of recombinant Human Phosphodiesterase B2 (PDE4B2) (Q07343 1-564 isoform Q07343-2): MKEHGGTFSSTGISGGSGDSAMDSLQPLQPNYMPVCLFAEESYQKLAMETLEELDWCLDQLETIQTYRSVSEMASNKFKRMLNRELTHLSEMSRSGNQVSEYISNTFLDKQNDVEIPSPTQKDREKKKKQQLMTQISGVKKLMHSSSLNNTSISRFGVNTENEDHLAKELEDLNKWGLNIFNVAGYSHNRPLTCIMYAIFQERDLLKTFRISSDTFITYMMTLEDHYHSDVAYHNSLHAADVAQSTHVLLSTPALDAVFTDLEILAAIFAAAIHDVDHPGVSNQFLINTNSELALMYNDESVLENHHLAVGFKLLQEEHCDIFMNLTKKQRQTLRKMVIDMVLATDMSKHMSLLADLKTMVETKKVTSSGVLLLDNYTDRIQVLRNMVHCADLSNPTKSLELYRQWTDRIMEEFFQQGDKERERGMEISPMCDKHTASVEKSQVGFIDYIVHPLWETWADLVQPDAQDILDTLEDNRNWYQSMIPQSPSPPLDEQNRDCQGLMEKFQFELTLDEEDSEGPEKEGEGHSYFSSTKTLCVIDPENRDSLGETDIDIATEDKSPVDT

Row | SMILES | PDE4B2 (percent at a single concentration, printed in the pIC50 column) [% at 0.32 uM]
1 | CN1CCC(n2c(=O)n([C@H]3CC[C@@H](NC(=O)c4cn5cc(F)ccc5n4)CC3)c(=O)c3cc(F)cnc32)CC1 [Example 40, 6-fluoro-N-{cis-4-[6-fluoro-1-(1-methylpiperidin-4-yl)-2,4-dioxo-1,4-dihydropyrido[2,3-d]pyrimidin-3(2H)-yl]cyclohexyl}imidazo[1,2-c]pyridine-2-carboxamide] | 50

same assay, conditions: recombinant human PDE4B2, radiometric SPA assay, 8 nM [3H]cyclic AMP; read-out: PDE4B2 pIC50 (converted)

Row | SMILES | IC50 [nM]
2 | O=C(O)c1ccc(-c2cccc(-n3c(=O)n([C@H]4CC[C@@H](NC(=O)c5cn6cc(F)ccc6n5)CC4)c(=O)c4cc(F)cnc43)c2)cc1 [Example 27, 3′-[6-fiuoro-3-(cis-4-{[(6-fluoroimidazo[1,2-a]pyridin-2-yl)carbonyl]amino}cyclohexyl)-2,4-dioxo-3,4-dihydropyrido[2,3-d]pyrimidin-1(2H)-yl]biphenyl-4-carboxylic acid] | 0.251
3 | O=C(N[C@H]1CC[C@@H](n2c(=O)c3cc(F)cnc3n(-c3cccc(-c4ccc(CN5CCOCC5)cc4)c3)c2=O)CC1)c1cn2cc(F)ccc2n1 [Example 28, 6-fluoro-N-{cis-4-[6-fluoro-1-[4′-(morpholin-4-ylmethyl)biphenyl-3-yl]-2,4-dioxo-1,4-dihydropyrido[2,3-d]pyrimidin-3(2H)-yl]cyclohexyl}imidazo[1,2-a]pyridine-2-carboxamide.] | 0.0126
4 | O=C(N[C@H]1CC[C@@H](n2c(=O)c3cc(F)cnc3n(-c3cccc(-c4ccc(C(F)(F)F)cc4)c3)c2=O)CC1)c1cn2cc(F)ccc2n1 [Example 29, 6-fluoro-N-{cis-4-[6-fluoro-2,4-dioxo-1-[4′-(trifluoromethyl)biphenyl-3-yl]-1,4-dihydropyrido[2,3-d]pyrimidin-3(2H)-yl]cyclohexyl}imidazo[1,2-a]pyridine-2-carboxamide.] | 0.0794
5 | CSc1ncc(-c2cccc(-n3c(=O)n([C@H]4CC[C@@H](NC(=O)c5cn6cc(F)ccc6n5)CC4)c(=O)c4cc(F)cnc43)c2)cn1 [Example 30, 6-fluoro-N-{cis-4-[6-fluoro-1-{3-[2-(methylthio)pyrimidin-5-yl]phenyl}-2,4-dioxo-1,4-dihydropyrido[2,3-d]pyrimidin-3(2H)-yl]cyclohexyl}imidazo[1,2-a]pyridine-2-carboxamide.] | 0.0158
6 | O=C(N[C@H]1CC[C@@H](n2c(=O)c3cc(F)cnc3n(-c3cccc(Cc4ccccc4)c3)c2=O)CC1)c1cn2ccccc2n1 [Example 34, N-{cis-4-[1-(3-benzylphenyl)-6-fluoro-2,4-dioxo-1,4-dihydropyrido[2,3-c]pyrimidin-3(2H)-yl]cyclohexyl}imidazo[1,2-a]pyridine-2-carboxamide] | 0.126
7 | O=C(N[C@H]1CC[C@@H](n2c(=O)c3cc(F)cnc3n(-c3ccc4c(cnn4Cc4ccccc4)c3)c2=O)CC1)c1cn2ccccc2n1 [Example 35, N-{cis-4-[1-(1-benzyl-1H-indazol-5-yl)-6-fluoro-2,4-dioxo-1,4-dihydropyrido[2,3-d]pyrimidin-3(2H)-yl]cyclohexyl}imidazo[1,2-a]pyridine-2-carboxamide] | 6.31
8 | CC(C)CCCC(C)n1c(=O)n([C@H]2CC[C@@H](NC(=O)c3cn4cc(F)ccc4n3)CC2)c(=O)c2cc(F)cnc21 (stereo partly drawn) [Example 36, N-{cis-4-[1-(1,5-dimethylhexyl)-6-fluoro-2,4-dioxo-1,4-dihydropyrido[2,3-d]pyrimidin-3(2H)-yl]cyclohexyl}-6-fluoroimidazo[1,2-a]pyridine-2-carboxamide] | 6.31
9 | O=C(NC1CN2CCC1CC2)c1cccc(-n2c(=O)n([C@H]3CC[C@@H](NC(=O)c4cn5cc(F)ccc5n4)CC3)c(=O)c3cc(F)cnc32)c1 (stereo partly drawn) [Example 42, N-{cis-4-[1-{3-[(1-azabicyclo[2.2.2]oct-3-ylamino)carbonyl]phenyl}-6-fluoro-2,4-dioxo-1,4-dihydropyrido[2,3-d]pyrimidin-3 (2H)-yl]cyclohexyl}-6-fluoroimidazo[1,2-a]pyridine-2-carboxamide] | 20
10 | CC(C)(C)OC(=O)N[C@H]1CC[C@@H](n2c(=O)c3cc(F)cnc3n(-c3cccc(-c4ccccc4CN4CCOCC4)c3)c2=O)CC1 [Example 45] | 0.316
11 | N[C@H]1CC[C@@H](n2c(=O)c3cc(F)cnc3n(-c3cccc(-c4ccccc4CN4CCOCC4)c3)c2=O)CC1 [Example 46, 3-(cis-4-aminocyclohexyl)-6-fluoro-1-[2′-(morpholin-4-ylmethyl)biphenyl-3-yl]pyrido[2,3-d]pyrimidine-2,4(1H,3H)-dione] | 2
12 | Cc1ccc(-c2cccc(-n3c(=O)n([C@H]4CC[C@@H](N)CC4)c(=O)c4cc(F)cnc43)c2)cc1 [Example 47, 3-(cis-4-aminocyclohexyl)-6-fluoro-1-(4′-methylbiphenyl-3-yl)pyrido[2,3-d]pyrimidine-2,4(1H,3H)-dione] | 2
13 | O=C(N[C@H]1CC[C@@H](n2c(=O)c3cc(F)cnc3n(-c3cccc(-c4ccccc4CN4CCOCC4)c3)c2=O)CC1)C1(O)CC1 [Example 48, N-{cis-4-[6-fluoro-1-[2′-(morpholin-4-ylmethyl)biphenyl-3-yl]-2,4-dioxo-1,4-dihydropyrido[2,3-d]pyrimidin-3(2H)-yl]cyclohexyl}-1-hydroxycyclopropanecarboxamide] | 0.398
14 | CN(C)Cc1ccc(-c2cccc(-n3c(=O)n([C@H]4CC[C@@H](N)CC4)c(=O)c4cc(F)cnc43)c2)cc1 [Example 49, 3-(cis-4-aminocyclohexyl)-1-{4′-[(dimethylamino)methyl]biphenyl-3-yl}-6-fluoropyrido[2,3-d]pyrimidine-2,4(1H,3H)-dione] | 12.6

The remaining lines, values ahead:

Row | IC50 [nM] | SMILES
15 | 0.0251 | O=C(N[C@H]1CC[C@@H](n2c(=O)c3cc(F)cnc3n(-c3cccc(-c4ccc(CO)cc4)c3)c2=O)CC1)c1cn2cc(F)ccc2n1 [Example 25, 6-fluoro-N-{cis-4-[6-fluoro-1-[4′-(hydroxymethyl)biphenyl-3-yl]-2,4-dioxo-1,4-dihydropyrido[2,3-d]pyrimidin-3(2H)-yl]cyclohexyl}imidazo[1,2-a]pyridine-2-carboxamide.]
16 | 0.0501 | O=C(N[C@H]1CC[C@@H](n2c(=O)c3cc(F)cnc3n(-c3cccc(-c4ccccc4O)c3)c2=O)CC1)c1cn2cc(F)ccc2n1 [Example 26, 6-fluoro-N-{cis-4-[6-fluoro-1-(2′-hydroxybiphenyl-3-yl)-2,4-dioxo-1,4-dihydropyrido[2,3-d]pyrimidin-3(2H)-yl]cyclohexyl}imidazo[1,2-a]pyridine-2-carboxamide.]
17 | 0.501 | NCc1cccc(-c2cccc(-n3c(=O)n([C@H]4CC[C@@H](NC(=O)c5cn6cc(F)ccc6n5)CC4)c(=O)c4cc(F)cnc43)c2)c1 [Example 31, N-{cis-4-[1-[3′-(aminomethyl)biphenyl-3-yl]-6-fluoro-2,4-dioxo-1,4-dihydropyrido[2,3-d]pyrimidin-3(2H)-yl]cyclohexyl}-6-fluoroimidazo[1,2-a]pyridine-2-carboxamide. Hydrochloride]
18 | 0.158 | NCc1ccc(-c2cccc(-n3c(=O)n([C@H]4CC[C@@H](NC(=O)c5cn6cc(F)ccc6n5)CC4)c(=O)c4cc(F)cnc43)c2)cc1 [Example 32, N-{cis-4-[1-[4′-(aminomethyl)biphenyl-3-yl]-6-fluoro-2,4-dioxo-1,4-dihydropyrido[2,3-d]pyrimidin-3(2H)-yl]cyclohexyl}-6-fluoroimidazo[1,2-a]pyridine-2-carboxamide Hydrochloride]
19 | 0.01 | CN(C)Cc1ccccc1-c1cccc(-n2c(=O)n([C@H]3CC[C@@H](NC(=O)c4cn5cc(F)ccc5n4)CC3)c(=O)c3cc(F)cnc32)c1 [Example 33, N-{cis-4-[1-{2′-[(dimethylamino)methyl]biphenyl-3-yl}-6-fluoro-2,4-dioxo-1,4-dihydropyrido[2,3-d]pyrimidin-3(2H)-yl]cyclohexyl}-6-fluoroimidazo[1,2-c]pyridine-2-carboxamide.]
20 | 6.31 | O=C(N[C@H]1CC[C@@H](n2c(=O)c3cc(F)cnc3n(-c3ccc(Cc4ccccc4)cc3)c2=O)CC1)c1cn2cc(F)ccc2n1 [Example 37, N-{cis-4-[1-(4-benzylphenyl)-6-fluoro-2,4-dioxo-1,4-dihydropyrido[2,3-d]pyrimidin-3(2H)-yl]cyclohexyl}-6-fluoroimidazo[1,2-a]pyridine-2-carboxamide]
21 | 3.16 | O=C(N[C@H]1CC[C@@H](n2c(=O)c3cc(F)cnc3n(CCc3ccccc3)c2=O)CC1)c1cn2cc(F)ccc2n1 [Example 38, 6-fluoro-N-{cis-4-[6-fluoro-2,4-dioxo-1-(2-phenylethyl)-1,4-dihydropyrido[2,3-d]pyrimidin-3(2H)-yl]cyclohexyl}imidazo[1,2-a]pyridine-2-carboxamide]
22 | 10 | O=C(N[C@H]1CC[C@@H](n2c(=O)c3cc(F)cnc3n(-c3ccc4c(cnn4Cc4ccccc4)c3)c2=O)CC1)c1cn2cc(F)ccc2n1 [Example 39, N-{cis-4-[1-(1-benzyl-1H-indazol-5-yl)-6-fluoro-2,4-dioxo-1,4-dihydropyrido[2,3-d]pyrimidin-3 (2H)-yl]cyclohexyl}-6-fluoroimidazo[1,2-a]pyridine-2-carboxamide]
23 | 0.0631 | O=C(N[C@H]1CC[C@@H](n2c(=O)c3cc(F)cnc3n(-c3cccc(Sc4ccccc4)c3)c2=O)CC1)c1cn2cc(F)ccc2n1 [Example 44, 6-fluoro-N-{cis-4-[6-fluoro-2,4-dioxo-1-[3-(phenylthio)phenyl]-1,4-dihydropyrido[2,3-d]pyrimidin-3(2H)-yl]cyclohexyl}imidazo[1,2-a]pyridine-2-carboxamide]
